Source: US20200268707A1, “METHODS OF MODULATING PROTEIN EXOCYTOSIS AND USES OF SAME IN THERAPY” (Yeda Research and Development Co. Ltd., priority 2016, published 2020)
“Also recorded” adds a separate entry of the source.

What was measured:
[1] = test system: HeLa cells; assay: Live/dead ratio, trypan blue and automated cell counter; format: cell-based, human; conditions: non-secretory, 2 μM monensin over 2 days
Protocol: (§1) Various cell lines treated with 2 μM of monensin over 2 days show increased cell death. Cells were counted using countess 2 automated cell counter to determine live/dead ratios.
(§2) HEK 293, IMR-90 and HeLa cells were grown in DMEM supplemented with 10% fetal bovine serum, 1% Penicillin/streptomycin and L-glutamine (2 mmole/liter) (Biological industries) at 37° C. with 5% CO2. Drugs were introduced to cells for 2 hrs at varying concentrations. Tunicamycin (Sigma) was given at 5 μg/ml. Treatment with the glycosylation inhibitor tunicamycin is known to cause accumulation of unfolded glycoproteins in the ER which is followed by […] of these aberrant proteins. […] Monensin (Enco scientific services) was given at 2 mM and MG-132 (Biotest) at 40 μM. Monensin is an antibiotic, commercially known as Golgi-stop. This drug inhibits the transport of proteins between the medial and trans-Golgi stacks thus also inhibiting phosphorylation, addition of galactose to glycoproteins and sulfation that occur in the trans-Golgi (Griffiths et al., 1983; Rosa et al., 1992). Cell death assessment was done by trypan blue staining and counted with Countess IFM automated cell counter (Thermo Fisher). Proliferation of mammalian cells was measured by XTT assay.
(§3) Accumulation of proteins in cells is highly cytotoxic. This cytotoxicity is potentially higher in highly secretory cells, wherein a large mass of proteins is constantly moving through the Golgi apparatus. […] The present inventors examined the long-term effect of Golgi traffic inhibition on secretory cells. Four human cell lines were selected, two that are non-secretory (HEK293 and HeLa) and two secretory cell lines (HepG2 and RPMI 8226) and assessed their live/dead ratios over 2 days of treatment with monensin.

[2] = test system: HepG2 cells; assay: as above; format: cell-based, human; conditions: HepG2, secretory; 2 μM monensin over 2 days
Protocol: as §1, §2, §3

[3] = test system: HEK293 cells; assay: as above; format: cell-based, human; conditions: HEK293, non-secretory; 2 μM monensin over 2 days
Protocol: as §1, §2, §3

[4] = test system: 5TGM1 MM cells; assay: FACS apoptosis measurement with annexin V and 7AAD; format: cell-based, murine; conditions: 5TGM1 cells; 12 hours, 1 μM monensin
Protocol: FIGS. 10A-10F show apoptosis measurement by FACS analyses of murine MM 5TGM1 cells treated with monensin. […] Bortezomib is a golden standard drug for MM.
Untreated cells show an expected low level of cell death, as in controls for DMSO, in which bortezomib is diluted and ethanol, in which monensin is diluted (FIGS. 10A-C).

[5] = test system: polyubiquitin in the Golgi of HeLa cells; assay: High content immunofluorescence microscopy of polyubiquitin in drug-treated cells; format: cell-based, human; conditions: drugs for 2 hrs (tunicamycin 5 μg/ml, monensin 2 mM, MG-132 40 μM), vs untreated
Protocol: as §2
HeLa cells, grown on 96-well ‘cell carrier’ plates (Perkin Elmer) were fixed in 4% paraformaldehyde (Electron microscopy sciences) and permeabilized in 0.5% triton (sigma)—PBS (biological industries). Primary antibodies were introduced for 1 hr and secondary antibodies for 30 min, both in PBS-2% BSA. Hoechst staining (Sigma) was done per product protocol. Images were acquired using the ‘Operetta’ high content screening microscope at X40 magnification and analyzed by ‘Harmony’ software (Perkin Elmer).
Constitutive and Stress-Induced Ubiquitylation of Proteins Retained in the Golgi The bioinformatics analysis of the extent of ubiquitylation in the Golgi prompted us to confirm the prediction for Golgi ubiquitylation in live mammalian cells. To this end, a high content screening microscopy system was utilized to assess and quantify the levels of polyubiquitylation in the Golgi apparatus under various stress inducing drug treatments. For this assay, drugs known to induce cell stress by different pathways were selected. Immunofluorescence images of HeLa cells stained for the Golgi marker giantin and poly-ubiquitin show Golgi localized polyubiquitylated puncta, indicating a basal level of protein steady state polyubiquitylation in the Golgi (FIG. 3A). Proteasomal inhibition is known to cause the accumulation of polyubiquitylated proteins that are bound for proteasomal degradation in the cell (37).
Next, the present inventors examined whether or not this accumulation also occurs in the Golgi, following treatment with the proteasomal inhibitor MG-132. […] This increase in polyubiquitylated proteins in the Golgi points to the possibility that as in the case of ERAD, polyubiquitylated proteins that are bound for degradation accumulate in the Golgi as well as in the ER upon proteasomal inhibition. Treatment with the glycosylation inhibitor tunicamycin is known to cause accumulation of unfolded glycoproteins in the ER which is followed by poly-ubiquitylation and degradation of these aberrant proteins. […] Monensin is an antibiotic, commercially known as Golgi-stop. This drug inhibits the transport of proteins between the medial and trans-Golgi stacks thus also inhibiting phosphorylation, addition of galactose to glycoproteins and sulfation that occur in the trans-Golgi (40, 41). […]

[6] = test system: proteasomal degradation in Golgi fractions of HEK293 cells; assay: suc-LLVY-AMC proteasome cleavage reporter assay, Golgi fractions; format: cell-based, human; conditions: Golgi fractions from treated vs untreated cells, 150 minutes
Protocol: Proteasome cleavage reporter assay Golgi or ER fractions from drug/siRNA treated HEK293 cells were incubated with suc-LLVY-AMC (Biotest) as per protocol and fluorescence levels were measured over time using a Tecan M200 plate reader (Ex: 360 nm, Em: 460 nm).
Quality control of protein substrates requires that unfolded and misfolded proteins be identified, ubiquitylated and finally, degraded. Following the above results, showing K-48 linked polyubiquitylation occurring in the Golgi apparatus and the presence of PSMD6, the final step in quality control was examined i.e., degradation. In order to assess degradation levels in the Golgi, the suc-LLVY-AMC fluorogenic proteasomal substrate assay was utilized, wherein the proteasomal substrate was exposed to Golgi fractions from treated vs. untreated cells. Fluorescence levels were measured over time, indicating the increase in proteasomal cleavage product (FIG. 8A). […] Treatment with the proteotoxic stressors Tunicamycin and monensin caused an increase in Golgi-localized degradation (FIGS. 8B, C), which is consistent with their effect on Golgi protein polyubiquitylation (FIG. 3B). […] In order to assess the involvement of PSMD6 in Golgi associated degradation, cells were transfected with either control siRNA or siRNA targeting PSMD6. The cells were fractionated and subjected to a suc-LLVY-AMC assay for both ER and Golgi fractions from cells treated with either siRNA. […] The results of the proteasomal activity assay point to active proteasomal degradation taking place in the Golgi apparatus. Furthermore, PSMD6 is shown to be a central component of Golgi-associated degradation while also playing a role in ERAD.

In the case of `CC[C@@]1([C@@H]2O[C@@H]([C@H]3O[C@@](O)(CO)[C@H](C)C[C@@H]3C)C[C@@H]2C)CC[C@H]([C@]2(C)CC[C@]3(C[C@H](O)[C@@H](C)[C@@H]([C@@H](C)[C@@H](OC)[C@H](C)C(=O)O)O3)O2)O1` [monensin], the “cell death (live/dead ratio)” value [1] is reported as “little effect; also recorded: largely insensitive”, the “cell death (live/dead ratio)” value [2] is reported as “more susceptible to cell death” and the “cell death (live/dead ratio)” value [3] is reported as “little effect”. The apoptotic cell death [4] was “comparable to that found in bortezomib treated cells”, the Golgi-localized polyubiquitin [5] was “increase in Golgi localized poly-ubiquitin, to slightly lower levels than those measured with tunicamycin” and the “Golgi-localized proteasomal degradation (suc-LLVY-AMC cleavage)” value [6] was “increase”.
